Tests used:
[1] = refractive index (Na D-line) (dimensionless); conditions: 101.33 kPa, Liquid, Standard Abbe refractometry
[2] = 101.33 kPa, Liquid; for viscosity: Capillary tube (Ostwald / Ubbelohde) method; for mass density: Vibrating tube method
[3] = xn = mol fraction of the nth substance listed; conditions: 101 kPa, Liquid, x1 = 1; for viscosity: Capillary tube (Ostwald / Ubbelohde) method; for mass density: Vibrating tube method

CCCCCCn1cc[n+](C)c1.[Cl-] [1-hexyl-3-methylimidazolium chloride]
Conditions | mass density, [2] [kg/m3] | refractive index, [1] | viscosity, [2] [mPa·s]
298.15 K | 1039.67 | 1.5172 | 18089
303.15 K | 1036.81 | 1.5158 | –
308.15 K | 1033.96 | 1.51437 | –
313.15 K | 1031.13 | 1.51294 | 3429
318.15 K | 1028.3 | 1.51151 | –
323.15 K | 1025.49 | 1.51009 | –
328.15 K | 1022.69 | 1.50868 | 942.1
333.15 K | 1019.89 | 1.50727 | –
338.15 K | 1017.11 | 1.50586 | –
343.15 K | 1014.32 | 1.50445 | 339.5

CCCCCCCC[n+]1ccn(C)c1.[Cl-] [1-methyl-3-octylimidazolium chloride]
Conditions | mass density, [2] [kg/m3] | refractive index, [1] | viscosity, [2] [mPa·s]
298.15 K | 1008.82 | 1.50987 | 20883
303.15 K | 1005.94 | 1.50838 | –
308.15 K | 1003.06 | 1.50689 | –
313.15 K | 1000.2 | 1.50543 | 4066
318.15 K | 997.37 | 1.50396 | –
323.15 K | 994.5 | 1.5025 | –
328.15 K | 991.67 | 1.50103 | 1091
333.15 K | 988.85 | 1.49956 | –
338.15 K | 986.04 | 1.4981 | –
343.15 K | 983.24 | 1.49664 | 387.2

O [water] + CCCCCCCC[n+]1ccn(C)c1.[Cl-]
[3]
Conditions | mass density [kg/m3] | viscosity [mPa·s]
298.15 K | – | 0.9
313.15 K | – | 0.66
328.15 K | 985.68 | 0.52
343.15 K | 977.75 | 0.42

O [water] + CCCCCCn1cc[n+](C)c1.[Cl-]
[3]
Conditions | mass density [kg/m3] | viscosity [mPa·s]
298.15 K | – | 0.895
313.15 K | – | 0.658
328.15 K | 985.68 | 0.519
343.15 K | 977.75 | 0.419

From the NIST ThermoML archive (doi:10.1021/je050460d)
